From paper PMC11671526, “β-caryophyllene sensitizes hepatocellular carcinoma cells to chemotherapeutics and inhibits cell malignancy through targeting MAPK signaling pathway” (Frontiers in Pharmacology, 2024)

System: HepG2 cells
Test: RNA-seq transcriptome analysis of differentially expressed genes
Format: cell-based, human
Conditions: BCP vs control HepG2
Protocol: The quality and concentration of RNA were examined by MOPS RNA electrophoresis and Eppendorf BioSpectrometer. The transcriptome analysis was performed by BGI-Wuhan China. The RNA-seq dataset of this study is accessible in the Gene Expression Omnibus (GEO) with an access number of GSE276099. The sequence library for each sample was prepared using the BGISEQ-500 platform with a 50-bp single-end (SE50) format. […]2.2.1) was used to align the clean reads to the reference genome and alignment of the clean reads to the reference genes was carried out using Bowtie2 (v2.4.5) ([Langmead and Salzberg, 2012]; [Kim et al., 2015]). Gene expression levels were calculated by RSEM (v1.3.1) ([Li and Dewey, 2011]). Analysis of differential gene expression was performed using edgeR in the Bioconductor software package ([Robinson et al., 2010]). Using a standard protocol, the RNA samples were also examined by reverse transcription and quantitative polymerase chain reaction (RT-qPCR). In brief, for reverse transcription, total RNA (1 μg) and gDNA wiper Mix were incubated at 42°C for 2 min. The samples were immediately incubated with a master mix containing 10 pmol/μL of poly (dT) primers at 37°C for 15 min and 85°C for 5 s. To detect the expression of specific genes by qPCR analysis, gene-specific primers (shown in Supplementary Table S1) were mixed with the ChamQ Universal SYBER qPCR Master Mix and the reaction was conducted using the Roche Lightcycler 480. The GAPDH value was used to normalize the results of each gene. The RNA-seq data of BCP-treated HepG2 cells were screened for DEGs. Gene symbols were turned into Enterz ID using the org.Hs.eg.db Bio-conductor R package. The cluster profiler (v4.6.2) package was used to perform the Kyoto Encyclopedia of Genes and Genomes (KEGG) and Gene Ontology (GO) enrichment analyses ([Wu et al., 2021]). Following the Transcript per million (TPM) data of the dataset, the line chart, and heatmap were plotted using ggplot2 and pheatmap R packages, respectively.

Q: For `C=C1CC/C=C(\C)CC[C@@H]2[C@@H]1CC2(C)C` [BCP, β-caryophyllene], which “logFC APOBEC3C” value (gene APOBEC3C, RNA-seq) is on record?
A: -0.5856

Q: And the “change APOBEC3C” value (gene APOBEC3C, DEG direction)?
A: Down

Q: And the “logFC ARRB1” value (gene ARRB1, RNA-seq)?
A: -0.7626

Q: And the “change ARRB1” value (gene ARRB1, DEG direction)?
A: Down

Q: What about the “logFC ATP9A” value (gene ATP9A, RNA-seq) of the same molecule?
A: 0.6507

Q: And the “change ATP9A” value (gene ATP9A, DEG direction)?
A: Up

Q: And the “logFC ATP11C” value (gene ATP11C, RNA-seq)?
A: -0.7847

Q: And the “change ATP11C” value (gene ATP11C, DEG direction)?
A: Down

Q: What about the “logFC AXIN2” value (gene AXIN2, RNA-seq) of the same molecule?
A: 0.6672

Q: And the “change AXIN2” value (gene AXIN2, DEG direction)?
A: Up

Q: What about the “logFC B4GALNT4” value (gene B4GALNT4, RNA-seq) of the same molecule?
A: -0.5947

Q: What about the “change B4GALNT4” value (gene B4GALNT4, DEG direction) of the same molecule?
A: Down

Q: And the “logFC BACE2” value (gene BACE2, RNA-seq)?
A: 0.7147

Q: And the “change BACE2” value (gene BACE2, DEG direction)?
A: Up

Q: And the “logFC BICDL1” value (gene BICDL1, RNA-seq)?
A: -0.8616

Q: And the “change BICDL1” value (gene BICDL1, DEG direction)?
A: Down

Q: What about the “logFC BIRC7” value (gene BIRC7, RNA-seq) of the same molecule?
A: 0.7538

Q: What about the “change BIRC7” value (gene BIRC7, DEG direction) of the same molecule?
A: Up

Q: What about the “logFC BIVM-ERCC5” value (gene BIVM-ERCC5, RNA-seq) of the same molecule?
A: 0.699

Q: What about the “change BIVM-ERCC5” value (gene BIVM-ERCC5, DEG direction) of the same molecule?
A: Up

Q: What about the “logFC BLCAP” value (gene BLCAP, RNA-seq) of the same molecule?
A: -0.6138

Q: What about the “change BLCAP” value (gene BLCAP, DEG direction) of the same molecule?
A: Down

Q: What about the “logFC BMP2” value (gene BMP2, RNA-seq) of the same molecule?
A: 0.7686

Q: What about the “change BMP2” value (gene BMP2, DEG direction) of the same molecule?
A: Up

Q: And the “logFC BUB1B-PAK6” value (gene BUB1B-PAK6, RNA-seq)?
A: -1.6183

Q: What about the “change BUB1B-PAK6” value (gene BUB1B-PAK6, DEG direction) of the same molecule?
A: Down

Q: What about the “logFC C1orf198” value (gene C1orf198, RNA-seq) of the same molecule?
A: 0.6

Q: And the “change C1orf198” value (gene C1orf198, DEG direction)?
A: Up

Q: And the “logFC C1orf216” value (gene C1orf216, RNA-seq)?
A: -0.8102

Q: What about the “change C1orf216” value (gene C1orf216, DEG direction) of the same molecule?
A: Down

Q: What about the “logFC C3orf80” value (gene C3orf80, RNA-seq) of the same molecule?
A: -1.174

Q: What about the “change C3orf80” value (gene C3orf80, DEG direction) of the same molecule?
A: Down

Q: What about the “logFC C4B” value (gene C4B, RNA-seq) of the same molecule?
A: 2.54

Q: What about the “change C4B” value (gene C4B, DEG direction) of the same molecule?
A: Up

Q: What about the “logFC C11orf86” value (gene C11orf86, RNA-seq) of the same molecule?
A: -1.473

Q: And the “change C11orf86” value (gene C11orf86, DEG direction)?
A: Down

Q: And the “logFC C19orf71” value (gene C19orf71, RNA-seq)?
A: 0.8161

Q: And the “change C19orf71” value (gene C19orf71, DEG direction)?
A: Up

Q: What about the “logFC CA5B” value (gene CA5B, RNA-seq) of the same molecule?
A: -1.2201

Q: And the “change CA5B” value (gene CA5B, DEG direction)?
A: Down

Q: And the “logFC CARD6” value (gene CARD6, RNA-seq)?
A: -1.5314

Q: And the “change CARD6” value (gene CARD6, DEG direction)?
A: Down

Q: And the “logFC CCDC24” value (gene CCDC24, RNA-seq)?
A: 1.127

Q: And the “change CCDC24” value (gene CCDC24, DEG direction)?
A: Up

Q: And the “logFC CCDC86” value (gene CCDC86, RNA-seq)?
A: -0.7779

Q: What about the “change CCDC86” value (gene CCDC86, DEG direction) of the same molecule?
A: Down

Q: What about the “logFC CCL2” value (gene CCL2, RNA-seq) of the same molecule?
A: -1.48

Q: And the “change CCL2” value (gene CCL2, DEG direction)?
A: Down

Q: And the “logFC CCL5” value (gene CCL5, RNA-seq)?
A: -1.124

Q: What about the “change CCL5” value (gene CCL5, DEG direction) of the same molecule?
A: Down

Q: What about the “logFC CCL26” value (gene CCL26, RNA-seq) of the same molecule?
A: -1.513

Q: What about the “change CCL26” value (gene CCL26, DEG direction) of the same molecule?
A: Down

Q: And the “logFC CELF2” value (gene CELF2, RNA-seq)?
A: 0.8875

Q: And the “change CELF2” value (gene CELF2, DEG direction)?
A: Up

Q: What about the “logFC CHST2” value (gene CHST2, RNA-seq) of the same molecule?
A: -1.145

Q: And the “change CHST2” value (gene CHST2, DEG direction)?
A: Down

Q: And the “logFC CKAP2L” value (gene CKAP2L, RNA-seq)?
A: 0.6857

Q: And the “change CKAP2L” value (gene CKAP2L, DEG direction)?
A: Up

Q: What about the “logFC CLDN2” value (gene CLDN2, RNA-seq) of the same molecule?
A: 1.355

Q: And the “change CLDN2” value (gene CLDN2, DEG direction)?
A: Up

Q: And the “logFC CLIP2” value (gene CLIP2, RNA-seq)?
A: -0.6426

Q: What about the “change CLIP2” value (gene CLIP2, DEG direction) of the same molecule?
A: Down

Q: What about the “logFC CLK1” value (gene CLK1, RNA-seq) of the same molecule?
A: 0.5953

Q: What about the “change CLK1” value (gene CLK1, DEG direction) of the same molecule?
A: Up

Q: What about the “logFC CLTCL1” value (gene CLTCL1, RNA-seq) of the same molecule?
A: 0.7125

Q: What about the “change CLTCL1” value (gene CLTCL1, DEG direction) of the same molecule?
A: Up

Q: What about the “logFC COL1A1” value (gene COL1A1, RNA-seq) of the same molecule?
A: 0.6324

Q: And the “change COL1A1” value (gene COL1A1, DEG direction)?
A: Up

Q: What about the “logFC COL4A1” value (gene COL4A1, RNA-seq) of the same molecule?
A: 0.7663

Q: And the “change COL4A1” value (gene COL4A1, DEG direction)?
A: Up

Q: And the “logFC COL7A1” value (gene COL7A1, RNA-seq)?
A: 0.6003

Q: What about the “change COL7A1” value (gene COL7A1, DEG direction) of the same molecule?
A: Up

Q: What about the “logFC CPM” value (gene CPM, RNA-seq) of the same molecule?
A: 0.6061

Q: And the “change CPM” value (gene CPM, DEG direction)?
A: Up

Q: And the “logFC CPS1” value (gene CPS1, RNA-seq)?
A: 0.6121

Q: What about the “change CPS1” value (gene CPS1, DEG direction) of the same molecule?
A: Up

Q: What about the “logFC CRABP2” value (gene CRABP2, RNA-seq) of the same molecule?
A: -0.6843

Q: And the “change CRABP2” value (gene CRABP2, DEG direction)?
A: Down

Q: What about the “logFC CREB3L4” value (gene CREB3L4, RNA-seq) of the same molecule?
A: 0.5981

Q: What about the “change CREB3L4” value (gene CREB3L4, DEG direction) of the same molecule?
A: Up

Q: What about the “logFC CREG2” value (gene CREG2, RNA-seq) of the same molecule?
A: 0.6638

Q: And the “change CREG2” value (gene CREG2, DEG direction)?
A: Up

Q: And the “logFC CRELD1” value (gene CRELD1, RNA-seq)?
A: 0.9439

Q: What about the “change CRELD1” value (gene CRELD1, DEG direction) of the same molecule?
A: Up

Q: What about the “logFC CSRP2” value (gene CSRP2, RNA-seq) of the same molecule?
A: 0.7909

Q: What about the “change CSRP2” value (gene CSRP2, DEG direction) of the same molecule?
A: Up

Q: And the “logFC CYP1A1” value (gene CYP1A1, RNA-seq)?
A: -0.7093

Q: What about the “change CYP1A1” value (gene CYP1A1, DEG direction) of the same molecule?
A: Down

Q: And the “logFC CYP3A5” value (gene CYP3A5, RNA-seq)?
A: -1.0618

Q: And the “change CYP3A5” value (gene CYP3A5, DEG direction)?
A: Down

Q: What about the “logFC CYP3A7” value (gene CYP3A7, RNA-seq) of the same molecule?
A: -2.402

Q: What about the “change CYP3A7” value (gene CYP3A7, DEG direction) of the same molecule?
A: Down

Q: And the “logFC CYP11A1” value (gene CYP11A1, RNA-seq)?
A: -1.306

Q: What about the “change CYP11A1” value (gene CYP11A1, DEG direction) of the same molecule?
A: Down

Q: What about the “logFC CYP26B1” value (gene CYP26B1, RNA-seq) of the same molecule?
A: -0.8298

Q: And the “change CYP26B1” value (gene CYP26B1, DEG direction)?
A: Down

Q: What about the “logFC DAAM1” value (gene DAAM1, RNA-seq) of the same molecule?
A: -0.6083

Q: What about the “change DAAM1” value (gene DAAM1, DEG direction) of the same molecule?
A: Down

Q: What about the “logFC DDIT3” value (gene DDIT3, RNA-seq) of the same molecule?
A: 0.9459

Q: What about the “change DDIT3” value (gene DDIT3, DEG direction) of the same molecule?
A: Up

Q: What about the “logFC DDR2” value (gene DDR2, RNA-seq) of the same molecule?
A: 0.7117

Q: What about the “change DDR2” value (gene DDR2, DEG direction) of the same molecule?
A: Up

Q: What about the “logFC DENND2D” value (gene DENND2D, RNA-seq) of the same molecule?
A: -1.958

Q: What about the “change DENND2D” value (gene DENND2D, DEG direction) of the same molecule?
A: Down

Q: What about the “logFC DEPDC1” value (gene DEPDC1, RNA-seq) of the same molecule?
A: 0.5867

Q: And the “change DEPDC1” value (gene DEPDC1, DEG direction)?
A: Up

Q: And the “logFC DGKD” value (gene DGKD, RNA-seq)?
A: 0.5855

Q: What about the “change DGKD” value (gene DGKD, DEG direction) of the same molecule?
A: Up

Q: And the “logFC DLG2” value (gene DLG2, RNA-seq)?
A: -1.169

Q: What about the “change DLG2” value (gene DLG2, DEG direction) of the same molecule?
A: Down

Q: And the “logFC DNER” value (gene DNER, RNA-seq)?
A: 1.171

Q: What about the “change DNER” value (gene DNER, DEG direction) of the same molecule?
A: Up

Q: What about the “logFC DOCK4” value (gene DOCK4, RNA-seq) of the same molecule?
A: -0.9058

Q: What about the “change DOCK4” value (gene DOCK4, DEG direction) of the same molecule?
A: Down

Q: And the “logFC EFNB2” value (gene EFNB2, RNA-seq)?
A: -0.688

Q: What about the “change EFNB2” value (gene EFNB2, DEG direction) of the same molecule?
A: Down

Q: What about the “logFC EGLN3” value (gene EGLN3, RNA-seq) of the same molecule?
A: -0.764
